In US20120039926A1, “Compositions and Methods for Modulating Immunogenic Responses by Activating Dendritic Cells” (priority 2009, published 2012):

Assays:
[1] = system: BM cells; assay: Protein array of spent medium from treated BM cells; format: cell-based, mouse
Protocol: Bone marrow (BM) cells were prepared. Briefly, the femurs and tibias were obtained from five C57BL/6 female mice, and the ends were removed to expose the hollow bone packed with marrow. BM cells were flushed from the bones with cold Hanks Balanced Salt Solution (HBSS) using a sterile disposable 22 g needle and pooled. Red blood cells (RBCs) were lysed using Tris-buffered ammonium chloride and resultant cells were washed 3 times in HBSS. BM cells were suspended in tissue culture medium (TCM) (RPMI 1640 with glutaminie plus […] PenStrep, 50 uM 2-mercaptoethanol, and 5% fetal calf serum) at approximately 5×10^6 cells/ml and incubated for 1 hour at 37° C. in a 5% CO2 atmosphere in plastic tissue culture flasks to remove adherent, mature macrophages. Decanted non-adherent cells were resuspended in TCM and 1.5×10^6 BM cells in 1 ml were placed into each well of a 24-well tissue culture plate (Falcon) and either left untreated or treated with 14.5 micromoles of J, gD, JgD or JH vaccines. After incubation for 48 hrs at 37° C., cells were viewed and photographed for changes in morphology, tissue culture supernatants were removed and the cells were prepared for flow cytometric analysis.

[2] = system: CD3- BM cells; assay: Surface CD8 and intracellular IL-12p70 in CD3-depleted bone marrow cells; format: cell-based, mouse; details: BM cells after treatment
Text: CD3+ cells were removed from BM cells using the fluorescence activated cell sorter and then untreated or treated with JgD or JH. Flow cytometric analysis of the sorted population confirmed the removal of CD3 positive cells. The CD3− BM cells were labeled with FITC-anti-CD8 (Beckman Coulter (clone 53-6.7)), fixed with paraformaldehyde, permeabilized with saponin (Intraprep, Immunotech), labeled with PE-anti-IL-12p70 (Beckman Coulter) and then post fixed with paraformaldehyde prior to immunofluorescence analysis.

[3] = system: human monocytes; format: cell-based; details: DC precursors (GMCSF and IL4), spent medium
[4] = system: A/J or C57BL/6 female mice; format: in vivo, mouse
[5] = system: C57BL/6 bone marrow (BM) cells; format: cell-based, mouse; details: second day after treatment, 14.5 micromoles
[6] = system: A/J or C57BL/6 female mice; format: in vivo, mouse; details: sera of days 3, 10 and 24

Substance: J-ICBL: immune cell binding ligand, amino acid 38-50 from the β-2-microglobulin (DLLKNGERIEKVE), unconjugated
- cytokine response in spent medium of treated BM cells [1]: failed to detect a cytokine response
- IL-12p70 expressing cells [2]: no significant increase
- production of cytokines (protein array) [3]: no significant production of cytokines
- IL-10 serum level relative to adjuvant control [4]: significantly decreased to only a half or to a third
- IL-12p40 serum level ([4]; versus adjuvant control): small but not significant increase
- IL-12p70 serum level ([4]; versus adjuvant control): small but not significant increase
- CD11c expression on monocyte population of BM cells [5]: no discernable change
- CD86 expression on monocyte population of BM cells [5]: no discernable change
- IL-12p70 in sera (direct ELISA), in words [6]: only trace or undetectable amounts
